Measured values reported in patent US20250368649A1, “TETRAHYDROPYRIDOPYRIMIDINE PAN-KRAS INHIBITORS” (Mirati Therapeutics, Inc., priority 2022, published 2025).

Experiments:
[1] = test system: MKN1 cells; test: Inhibition of KRas-mediated phosphorylation of ERK (Cisbio HTRF pERK), MKN1 cells; assay type: cell-based; conditions: Homo sapiens, MKN-1, 3 hr compound incubation
Method in brief: (§1)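 On the first day, plate 6,000 cells into each well in RPMI medium with 10% fetal bovine serum.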

[2] = target: KRas G12C (Homo sapiens, UniProt P01116, G12C); assay type: binding; conditions: TR-FRET displacement, read-out: Binding to KRas (IC50 nM) G12C
[3] = test system: H727 cells; test: Inhibition of KRas-mediated phosphorylation of ERK (Cisbio HTRF pERK), H727 cells; assay type: cell-based; conditions: Homo sapiens, NCI-H727, 3 h, 3 hr compound incubation
[4] = test system: PSN1 cells; test: Inhibition of KRas-mediated phosphorylation of ERK (Cisbio HTRF pERK), PSN1 cells; assay type: cell-based; conditions: Homo sapiens, PSN1, 3 h, 3 hr compound incubation
Method in brief: as §1

[5] = test system: H358 cells; test: Inhibition of KRas-mediated phosphorylation of ERK (Cisbio HTRF pERK), H358 cells; assay type: cell-based; conditions: Homo sapiens, NCI-H358, 3 h, 3 hr compound incubation
[6] = target: KRas G12D (Homo sapiens, UniProt P01116, G12D); test: biochemical; conditions: Binding to KRas (IC50 nM) G12D, TR-FRET displacement, KRas G12D
[7] = test system: HCT116 cells; test: Inhibition of KRas-mediated phosphorylation of ERK (Cisbio HTRF pERK), HCT116 cells; assay type: cell-based; conditions: Homo sapiens, HCT-116, 3 h, 3 hr compound incubation
[8] = test system: H460 cells; test: Inhibition of KRas-mediated phosphorylation of ERK (Cisbio HTRF pERK), H460 cells; assay type: cell-based; conditions: Homo sapiens, NCI-H460, 3 h, 3 hr compound incubation
[9] = test system: A549 cells; test: Inhibition of KRas-mediated phosphorylation of ERK (Cisbio HTRF pERK), A549 cells; assay type: cell-based; conditions: Homo sapiens, A549, 3 h, 3 hr compound incubation
[10] = test system: H2009 cells; test: Inhibition of KRas-mediated phosphorylation of ERK (Cisbio HTRF pERK), H2009 cells; assay type: cell-based; conditions: Homo sapiens, NCI-H2009, 3 hr compound incubation
[11] = test system: ASPC1 cells; test: Inhibition of KRas-mediated phosphorylation of ERK (Cisbio HTRF pERK), ASPC1 cells; assay type: cell-based; conditions: Homo sapiens, ASPC1, 3 h, AsPC-1 cells; 3 hr compound incubation
[12] = target: KRas WT (Homo sapiens, UniProt P01116); test: KRas binding assay (TR-FRET displacement), KRas WT; conditions: TR-FRET displacement
[13] = target: KRas G12V (Homo sapiens, UniProt P01116, G12V); test: biochemical; conditions: Binding to KRas (IC50 nM) G12V, TR-FRET displacement, KRas G12V
[14] = target: KRas G12S (Homo sapiens, UniProt P01116, G12S); assay type: binding; conditions: TR-FRET displacement, read-out: Binding to KRas (IC50 nM) G12S
Chain of KRas G12S (P01116 1-169 isoform P01116-2 G12S): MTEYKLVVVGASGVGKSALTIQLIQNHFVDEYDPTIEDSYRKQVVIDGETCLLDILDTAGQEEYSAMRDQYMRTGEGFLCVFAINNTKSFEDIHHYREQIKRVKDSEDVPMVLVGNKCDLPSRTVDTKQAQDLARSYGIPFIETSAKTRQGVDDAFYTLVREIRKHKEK

Chain of KRas WT (P01116 1-169 isoform P01116-2): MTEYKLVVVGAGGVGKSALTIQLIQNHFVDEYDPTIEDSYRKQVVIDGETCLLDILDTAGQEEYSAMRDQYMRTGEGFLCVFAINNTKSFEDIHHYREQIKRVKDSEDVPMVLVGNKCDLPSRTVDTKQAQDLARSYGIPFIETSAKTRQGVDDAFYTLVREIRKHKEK
Chain of KRas G12C (P01116 1-169 isoform P01116-2 G12C): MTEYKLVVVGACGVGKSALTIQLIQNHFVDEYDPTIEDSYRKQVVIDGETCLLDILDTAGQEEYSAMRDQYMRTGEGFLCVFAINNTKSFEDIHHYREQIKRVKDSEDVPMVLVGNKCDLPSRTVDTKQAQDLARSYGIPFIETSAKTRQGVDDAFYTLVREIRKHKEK
Chain of KRas G12V (P01116 1-169 isoform P01116-2 G12V): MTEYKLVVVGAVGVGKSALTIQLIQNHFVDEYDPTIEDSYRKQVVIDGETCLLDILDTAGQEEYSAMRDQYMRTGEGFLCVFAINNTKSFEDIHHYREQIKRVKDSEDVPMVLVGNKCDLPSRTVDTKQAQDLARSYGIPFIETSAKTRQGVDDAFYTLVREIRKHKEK
Chain of KRas G12D (P01116 1-169 isoform P01116-2 G12D): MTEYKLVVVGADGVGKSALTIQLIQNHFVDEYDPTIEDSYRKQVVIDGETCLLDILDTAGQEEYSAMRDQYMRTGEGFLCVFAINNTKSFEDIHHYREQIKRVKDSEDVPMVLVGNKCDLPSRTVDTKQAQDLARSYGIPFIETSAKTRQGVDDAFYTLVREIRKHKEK

Row | IC50 [1] [nM] | IC50 [2] [nM] | IC50 [3] [nM] | IC50 [4] [nM] | IC50 [5] [nM] | IC50 [6] [nM] | IC50 [7] [nM] | IC50 [8] [nM] | IC50 [9] [nM] | IC50 [10] [nM] | IC50 [11] [nM] | IC50 [12] [nM] | IC50 [13] [nM] | IC50 [14] [nM] | Compound
1 | 75.9 | 48 | 1110 | > 10000 | 484 | 57 | 1860 | 813 | 1210 | 221 | 626 | 52 | 60 | 60 | C[C@@]1(O)COCCN(c2nc(OC[C@@]34CCCN3C[C@H](F)C4)nc3c2CCN(c2ccc(F)c4sc(N)c(C#N)c24)C3)C1 [Example 710, 2-amino-7-fluoro-4-(2-(((2R,7aS)-2-fluorotetrahydro-1H-pyrrolizin-7a(5H)-yl)methoxy)-4-((S)-6-hydroxy-6-methyl-1,4-oxazepan-4-yl)-5,8-dihydropyrido[3,4-d]pyrimidin-7(6H)-yl)benzo[b]thiophene-3-carbonitrile]
2 | 10.5 | < 2 | 67 | 1800 | 29 | 2 | 253 | 127 | 92 | 17 | 51 | < 2 | < 2 | < 2 | C=C1CN2CCCC2(COc2nc3c(c(N4CCCC5(CCO5)C4)n2)CCN(c2cc(O)cc4ccc(F)c(CC)c24)C3)C1 (stereo not drawn) [Example 713, 5-ethyl-6-fluoro-4-(2-((2-methylenetetrahydro-1H-pyrrolizin-7a(5H)-yl)methoxy)-4-(1-oxa-6-azaspiro[3.5]nonan-6-yl)-5,8-dihydropyrido[3,4-d]pyrimidin-7(6H)-yl)naphthalen-2-ol]
3 | 830 | 19 | 7410 | > 10000 | 2680 | 17 | 7220 | 2520 | 4820 | 424 | 1940 | 10 | 21 | 13 | C[C@@]1(O)CCCN(c2nc(OC[C@@]34CCCN3C[C@H](F)C4)nc3c2CCN(c2ccc(F)c4sc(N)c(C#N)c24)C3)C1 [Example 711, 2-amino-7-fluoro-4-(2-(((2R,7aS)-2-fluorotetrahydro-1H-pyrrolizin-7a(5H)-yl)methoxy)-4-((R)-3-hydroxy-3-methylpiperidin-1-yl)-5,8-dihydropyrido[3,4-d]pyrimidin-7(6H)-yl)benzo[b]thiophene-3-carbonitrile]
